Source: patent publication US7309491B2, “Heat shock protein-based vaccines and immunotherapies” (priority 2003, dated 2007)
Where “and” joins values, the source holds several entries; their conditions need not be identical. Equal values may be shown once. Read-outs that look alike come from different tables or passages of the source.

Tests used:
[1] = test system: CD8+ T cells; type: in vivo, B6 mice
[2] = test system: B3Z cells; assay: in-vitro antigen presentation assay (IL-2 produced by B3Z cells); type: cell-based
Text: The in-vitro antigen presentation assay described above was utilized further in order to evaluate the formulations of the invention.

[3] = test system: SIINFEKL-pulsed target cells; parameters: species or system mice; settings: mouse, in vivo
[4] = molecular target: recombinant human or murine heat shock protein 70 (hsp70); assay: Scatchard analysis of labeled reference hybrid antigen binding to hsp70; settings: 39% PBS, 20 mM THAM pH 8, 37 mM NaCl, 5 mM MgCl2, 1 mM ADP
[5] = test system: T cells of HHD II mice bearing human HLA-A2; settings: mouse, in vivo
[6] = test system: modified to express ovalbumin (E.G7); parameters: species or system B6 mice; settings: mouse, in vivo
[7] = molecular target: recombinant human or murine heat shock protein 70 (hsp70); assay: hsp70 binding inhibition assay (Hill plots) relative to labeled reference hybrid antigen; settings: read-out: Kd for hsp70 binding, antigenic domains alone
[8] = Ex. 17 prime-boost, doses as E100

NLLRLTGWFFRKIAYFYPELFFRKFAPGNYPAL
Number of Spots per 300,000 cells: FAPGNYPAL (SEQ ID NO:891) ([1]; mouse, in vivo): 136 ± 6.6 | Number of Spots per 300,000 cells: IAYFYPEL (SEQ ID NO:904) ([1]; mouse, in vivo): 128 ± 9.2 | Number of Spots per 300,000 cells: RGYVYQGL (SEQ ID NO:879) ([1]; mouse, in vivo): 1.7 ± 0.8 | Number of Spots per 300,000 cells: SIINFEKL (SEQ ID NO:868) ([1]; mouse, in vivo): 1.7 ± 1.1

SIINFEKL [reference compound]
Pg/ml IL-2 produced by B3Z cells ([2]; Ex. 12 (200-MF-41), 0.5 ng SIINFEKL, 5 ng […], 1.4 ug hsp70): 2690 ± 369 pg/mL | Number of spots per 400,000 cells: SIINFEKL (SEQ ID NO:868) ([1]; Ex. 8 (200-17), B6 mice, no added hsp70, 10 μg SIINFEKL or 0.5 μg […]): 2.33 ± 0.41 spots per 400,000 cells | Number of Spots per 400,000 cells: Con A positive control ([1]; Ex. 8 (200-17), doses as E40): 928 ± 72 spots per 400,000 cells | Number of Spots per 400,000 cells: Medium control ([1]; Ex. 8 (200-17), doses as E40): 0.33 ± 0.41 spots per 400,000 cells | Number of Spots per 400,000 cells: Unpulsed control ([1]; Ex. 8 (200-17), doses as E40): 1.33 ± 0.82 spots per 400,000 cells | Number of spots per 400,000 cells: VSV control ([1]; Ex. 8 (200-17), doses as E40): 1.7 ± 0.41 spots per 400,000 cells | Number of spots per 400,000 cells: VSV control ([1]; Ex. 9 (VSV-72-02), doses as E55): 1.0 ± 1.0 spots per 400,000 cells | number of spots per 400,000 cells; immunized day 0, analyzed day 7 ([1]; Ex. 17 prime-boost, 2 μg hsp70, 2 μg hsp70 with 4 μg SIINFEKL or 4 μg hybrid antigen, 2 μg hybrid antigen alone, SIINFEKL dose not given): 3.0 ± 2.0 spots per 400,000 cells | number of spots per 400,000 cells; immunized day 0, analyzed day 21 [1, 8]: 0.0 ± 1.0 spots per 400,000 cells | number of spots per 400,000 cells; immunized day 0, analyzed day 28 [1, 8]: 1.0 ± 1.0 spots per 400,000 cells | number of spots per 400,000 cells; immunized days 0, 7, analyzed day 21 [1, 8]: 2.0 ± 1.0 spots per 400,000 cells | number of spots per 400,000 cells; immunized days 0, 14, analyzed day 28 [1, 8]: 1.0 ± 1.0 spots per 400,000 cells | Number of Spots per 400,000 cells: Con A positive control ([1]; mouse, in vivo): 478 ± 67 spots per 400,000 cells | Number of Spots per 400,000 cells: Medium control ([1]; mouse, in vivo): 0.0 ± 0.0 spots per 400,000 cells | Number of Spots per 400,000 cells: Unpulsed control ([1]; mouse, in vivo): 0.0 ± 1.0 spots per 400,000 cells | Number of spots per 400,000 cells: SIINFEKL (SEQ ID NO:868) ([1]; mouse, in vivo): 1.0 ± 1.0 spots per 400,000 cells | CTL % killing at 200:1 E/T [3]: 6%

ALFDIESKVGSGHWDFAWPW
Kd ([4]; fluoresceinated label): 10.8 µM | Kd ([4]; tritiated label): 22.6 µM

NLLRLTGWFFRKFAPGNYPAL (SEQ ID NO:892) (Hybrid antigen)
Number of Spots per 300,000 cells, FAPGNYPAL (SEQ ID NO:906) ([1]; mouse, in vivo): 4.3 ± 3.2 Spots per 300,000 cells | Number of Spots per 300,000 cells, IAYFYPEL (SEQ ID NO:904) ([1]; mouse, in vivo): 0.3 ± 0.6 Spots per 300,000 cells | Number of Spots per 300,000 cells, Medium ([1]; mouse, in vivo): 0 ± 0 Spots per 300,000 cells

FFRKSIINFEKLFFRKRGYVYQGL [reference compound]
Number of Spots per 300,000 cells: Medium control ([1]; mouse, in vivo): 1.7 ± 0.4 | Number of Spots per 300,000 cells: RGYVYQGL (SEQ ID NO:879) ([1]; mouse, in vivo): 31 ± 5.5 | Number of Spots per 300,000 cells: SIINFEKL (SEQ ID NO:868) ([1]; mouse, in vivo): 8.3 ± 1.1

NLLRLTGWFFRKIMDQVPFSV
Number of Spots per 400,000 cells: IMD [5]: 27 ± 5.1 spots per 400,000 cells | Number of Spots per 400,000 cells: Medium control [5]: 0.0 ± 0.0 spots per 400,000 cells | Number of Spots per 400,000 cells: Unpulsed control [5]: 0.0 ± 0.0 spots per 400,000 cells | Number of Spots per 400,000 cells: YMD control [5]: 2.0 ± 2.0 spots per 400,000 cells

NLLRLTGWFFRKSSWDFITV (SEQ ID NO:911) (Hybrid antigen)
Number of Spots per 300,000 cells, Medium ([1]; mouse, in vivo): 0.7 ± 0.8 Spots per 300,000 cells | Number of Spots per 300,000 cells, Response to Class I epitope when Class I and Class II hybrid antigen admixture is administered ([1]; mouse, in vivo): 98 ± 5.8 Spots per 300,000 cells | Number of Spots per 300,000 cells, Response to Class I epitope when Class I hybrid antigen administered ([1]; mouse, in vivo): 18 ± 0.7 Spots per 300,000 cells | Number of Spots per 300,000 cells, Splenocytes ([1]; mouse, in vivo): 0.7 ± 0.4 Spots per 300,000 cells

NLLRLTGWFRSIINFEKL
Number of Spots per 300,000 cells: Medium ([1]; mouse, in vivo): 0.67 ± 0.58 | Number of Spots per 300,000 cells: SIINFEKL (SEQ ID NO:868) ([1]; mouse, in vivo): 12 ± 2 | Number of Spots per 300,000 cells: Unpulsed Splenocytes ([1]; mouse, in vivo): 0.67 ± 0.58 | Number of Spots per 400,000 cells: Medium control ([1]; mouse, in vivo): 1.0 ± 1.7 spots per 400,000 cells | Number of Spots per 400,000 cells: Unpulsed control ([1]; mouse, in vivo): 0.0 ± 0.0 spots per 400,000 cells | Number of spots per 400,000 cells: VSV control ([1]; mouse, in vivo): 0.67 ± 0.58 spots per 400,000 cells | Number of spots per 400,000 cells: SIINFEKL (SEQ ID NO:868) ([1]; mouse, in vivo, sc): 31 ± 5.7 spots per 400,000 cells

NLLRLTGWFFRKIAYFYPEL (SEQ ID NO:913) (Hybrid antigen)
Number of Spots per 300,000 cells, Medium ([1]; mouse, in vivo): 0 ± 0 Spots per 300,000 cells | Number of Spots per 300,000 cells, Response to Class I epitope when Class I and Class II hybrid antigen admixture is administered ([1]; mouse, in vivo): 73 ± 9.8 Spots per 300,000 cells | Number of Spots per 300,000 cells, Response to Class I epitope when Class I hybrid antigen administered ([1]; mouse, in vivo): 11 ± 3 Spots per 300,000 cells | Number of Spots per 300,000 cells, Splenocytes ([1]; mouse, in vivo): 0 ± 0 Spots per 300,000 cells

NLLRLTGWFFRKSIINFEKL
Pg/ml IL-2 produced by B3Z cells [2]: 46 ± 11 pg/mL | Number of Spots per 4 × 10^5 CD8 T cells: Con A Positive control ([1]; mouse, in vivo): 459 ± 149 | Number of Spots per 4 × 10^5 CD8 T cells: Medium control ([1]; mouse, in vivo): 1.00 ± 1.00 | Number of Spots per 4 × 10^5 CD8 T cells: SIINFEKL (SEQ ID NO:868) ([1]; mouse, in vivo): 151 ± 20.7 | Number of Spots per 4 × 10^5 CD8 T cells: Unpulsed control ([1]; mouse, in vivo): 1.67 ± 0.58 | Number of Spots per 4 × 10^5 CD8 T cells: VSV control ([1]; mouse, in vivo): 0.00 ± 0.00 | Number of Spots per 300,000 CD8 T cells: Con A positive control ([1]; mouse, in vivo): 688 ± 41.7 | Number of Spots per 300,000 CD8 T cells: Medium control ([1]; mouse, in vivo): 0.00 ± 0.00 | Number of Spots per 300,000 CD8 T cells: SIINFEKL (SEQ ID NO:868) ([1]; mouse, in vivo): 211 ± 17.0 | Number of Spots per 300,000 CD8 T cells: Unpulsed control ([1]; mouse, in vivo): 0.50 ± 0.71 | Number of Spots per 300,000 CD8 T cells: VSV control ([1]; mouse, in vivo): 1.00 ± 0.00 | Number of Spots per 300,000 cells: Medium ([1]; mouse, in vivo): 0 ± 0 | Number of Spots per 300,000 cells: Medium control ([1]; mouse, in vivo): 0.67 ± 0.82 | Number of Spots per 300,000 cells: SIINFEKL (SEQ ID NO:868) ([1]; mouse, in vivo): 109 ± 14 | Number of Spots per 300,000 cells: Unpulsed Splenocytes ([1]; mouse, in vivo): 3.0 ± 2.0 | Number of Spots per 300,000 cells: Unpulsed control ([1]; mouse, in vivo): 0 ± 0 | Number of Spots per 300,000 cells: VSV control ([1]; mouse, in vivo): 0.67 ± 0.82 | Number of Spots per 400,000 cells: Con A positive control ([1]; mouse, in vivo): 930 ± 23 spots per 400,000 cells and 1007 ± 17 spots per 400,000 cells and 906 ± 17 spots per 400,000 cells | Number of Spots per 400,000 cells: Medium control ([1]; mouse, in vivo): 1.0 ± 1.7 spots per 400,000 cells and 2.0 ± 0.41 spots per 400,000 cells and 1.33 ± 0.41 spots per 400,000 cells | number of spots per 400,000 cells; immunized day 0, analyzed day 7 ([1]; mouse, in vivo): 72 ± 5.0 spots per 400,000 cells | number of spots per 400,000 cells; immunized day 0, analyzed day 21 ([1]; mouse, in vivo): 42 ± 7.0 spots per 400,000 cells | number of spots per 400,000 cells; immunized day 0, analyzed day 28 ([1]; mouse, in vivo): 82 ± 11 spots per 400,000 cells | number of spots per 400,000 cells; immunized days 0, 7, analyzed day 21 ([1]; mouse, in vivo): 24 ± 6.0 spots per 400,000 cells | number of spots per 400,000 cells; immunized days 0, 14, analyzed day 28 ([1]; mouse, in vivo): 25 ± 9.0 spots per 400,000 cells | Number of Spots per 300,000 cells: SIINFEKL ([1]; mouse, in vivo, sc): 11 ± 1.8 | number of mice with tumors after 31 days [6]: Three of 10 | CTL assay: % killing at 200:1 E/T [3]: 9.91 ± 5.57%

NLLRLTGWFFRKRTFSFQLI (SEQ ID NO:912) (Hybrid antigen)
Number of Spots per 300,000 cells, Medium ([1]; mouse, in vivo): 0.3 ± 0.4 Spots per 300,000 cells | Number of Spots per 300,000 cells, Response to Class I epitope when Class I and Class II hybrid antigen admixture is administered ([1]; mouse, in vivo): 43 ± 7.6 Spots per 300,000 cells | Number of Spots per 300,000 cells, Response to Class I epitope when Class I hybrid antigen administered ([1]; mouse, in vivo): 5.3 ± 1.5 Spots per 300,000 cells | Number of Spots per 300,000 cells, Splenocytes ([1]; mouse, in vivo): 0 ± 0 Spots per 300,000 cells

RGYVYQGL
Kd [7]: 82 µM

NLLRLTGWFFRKDAPIYTNV (SEQ ID NO:910) (Hybrid antigen)
Number of Spots per 300,000 cells, Medium ([1]; mouse, in vivo): 0.7 ± 0.4 Spots per 300,000 cells | Number of Spots per 300,000 cells, Response to Class I epitope when Class I and Class II hybrid antigen admixture is administered ([1]; mouse, in vivo): 13 ± 3.9 Spots per 300,000 cells | Number of Spots per 300,000 cells, Response to Class I epitope when Class I hybrid antigen administered ([1]; mouse, in vivo): 2 ± 1.9 Spots per 300,000 cells | Number of Spots per 300,000 cells, Splenocytes ([1]; mouse, in vivo): 0 ± 0 Spots per 300,000 cells

NLLRLTGWRKSIINFEKL
Number of Spots per 400,000 cells: Con A positive control ([1]; mouse, in vivo): 842 ± 73 spots per 400,000 cells | Number of Spots per 400,000 cells: Medium control ([1]; mouse, in vivo): 1.0 ± 1.0 spots per 400,000 cells | Number of Spots per 400,000 cells: Unpulsed control ([1]; mouse, in vivo): 1.0 ± 1.0 spots per 400,000 cells | Number of spots per 400,000 cells: SIINFEKL (SEQ ID NO:868) ([1]; mouse, in vivo): 24 ± 1 spots per 400,000 cells | Number of spots per 400,000 cells: VSV control ([1]; mouse, in vivo): 5.0 ± 3.0 spots per 400,000 cells | CTL % killing at 200:1 E/T [3]: 24%
